From US8633324B2, “Denibulin di-hydrochloride” (Medicinova, Inc., priority 2011, dated 2014)
Structures can show the parent of a compound that is named as a salt. Where two headings read alike, the source gives them in different places.

Experiment: Solubility as a function of pH in buffers without and with 15% HPBCD
Type: physicochemical
Conditions: thermodynamic from solid
Description: Buffers were prepared to cover a pH range of 2 to 7. Approximately 5 to 10 milligrams of drug was weighed into an HPLC vial to which 1.00 mL of the appropriate buffer was added. The solutions were vortexed briefly and were then shaken for five days on an orbital shaker. The prolonged shaking was carried out because slow equilibration had been observed during the initial formulation studies with different salt forms of MN-029.
Buffers with 15% HPBCD were prepared from the previous buffers. One and a half grams of HPBCD was weighed into each of several 10 mL volumetric flasks. HPBCD was dissolved in and diluted to volume with the appropriate buffer. 15 to 20 milligrams of MN-029 di-hydrochloride was weighed out into an tared HPLC vial. To the di-hydrochloride salt was added 1.00 mL of each buffer and the solution was vortexed briefly to dissolve the salt. The solutions were placed on an orbital shaker for five days. Solubility results are shown in Table 10, and the pH solubility profile for the drug in the absence of HPBCD is shown in FIG. 8.

- solubility at 5 days (aqueous buffer with 15% HPBCD, aqueous with cosolvent or surfactant or cyclodextrin, pH 2 to pH 6.9, in the presence of 15% HPBCD, read-out: solubility across the tested pH range): > 20000 µg/mL
- solubility at 5 days (aqueous buffer, pH 2, aqueous buffer, Without HPBCD, buffer pH 2.0, final pH 2.10, five days shaking, read-out: MN-029 Solubility): ~6000 µg/mL
Structure (SMILES): COC(=O)Nc1nc2ccc(Sc3ccc(NC(=O)[C@H](C)N)cc3)cc2[nH]1 [MN-029 di-hydrochloride, carbamic acid N-[6-[[4-[[(2S)-2-amino-1-oxopropyl]amino]phenyl]thio]-1H-benzimidazol-2-yl]-methyl ester di-hydrochloride]
